Experimental data: patent US20200017495A1, “NOVEL HETEROCYCLIC COMPOUNDS AND THEIR USE IN PREVENTING OR TREATING BACTERIAL INFECTIONS” (priority 2017, published 2020)

Legend:
[1] = system: Enterobacter cloacae (ECL) isolates; assay: MIC of compounds alone and combined with antibacterials, broth microdilution (CLSI); assay type: cell-based
Outline: (§1)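 Log-phase isolates were inoculated at a final 5.10^5 CFU/mL in cation-adjusted Mueller-Hinton broth and incubated 16-20 h at 35° C in ambient air. MIC was the lowest concentration preventing visible growth; for combinations, the antibacterial MIC was read at each compound concentration.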

[2] = system: Escherichia coli (ECO) isolates; assay: as above; assay type: cell-based
Outline: as §1

C=CC1=C(C(=O)O)N2C(=O)[C@@H](NC(=O)/C(=N\OCC(=O)O)c3csc(N)n3)[C@H]2SC1 [FIX, Cefixime]
MIC ATB in combination ([1]; strain ECL UFR192, with CLA @ 4 μg/mL): >128 µg/mL
MIC ([1]; strain ECL UFR193, genotype TEM-1, CTX-M-15, OXA-1, NDM-1, RmtC, antibiotic alone): >128 µg/mL
MIC ATB in combination ([1]; strain ECL UFR193, with AF2 @ 8 μg/mL): >128 µg/mL
MIC ATB in combination ([1]; strain ECL UFR193, with AF3 @ 8 μg/mL): <=0.25 μg/mL
MIC ATB in combination ([1]; strain ECL UFR193, with CLA @ 4 μg/mL): >128 µg/mL
MIC ([1]; strain ECL UFR194, genotype OXA-48): 4 µg/mL
MIC ATB in combination ([1]; strain ECL UFR194, with AF2 @ 8 μg/mL): <=0.25 μg/mL
MIC ATB in combination ([1]; strain ECL UFR194, with AF3 @ 8 μg/mL): <=0.25 μg/mL
MIC ATB in combination ([1]; strain ECL UFR194, with CLA @ 4 μg/mL): 8 µg/mL
MIC ([1]; strain ECL UFR195, genotype TEM-1, CTX-M-15, OXA-1, OXA-48): >128 µg/mL
MIC ATB in combination ([1]; strain ECL UFR195, with AF2 @ 8 μg/mL): 8 µg/mL
MIC ATB in combination ([1]; strain ECL UFR195, with AF3 @ 8 μg/mL): 0.5 µg/mL
MIC ATB in combination ([1]; strain ECL UFR195, with CLA @ 4 μg/mL): >128 µg/mL
MIC ([1]; strain ECL UFR196, genotype TEM-1, CTX-M-15, OXA-1, OXA-48): >128 µg/mL
MIC ATB in combination ([1]; strain ECL UFR196, with AF2 @ 8 μg/mL): 8 µg/mL
MIC ATB in combination ([1]; strain ECL UFR196, with AF3 @ 8 μg/mL): 2 µg/mL
MIC ATB in combination ([1]; strain ECL UFR196, with CLA @ 4 μg/mL): >128 µg/mL
MIC ([1]; strain ECL UFR197, genotype TEM-1, CTX-M-15, OXA-1, OXA-48): >128 µg/mL
MIC ATB in combination ([1]; strain ECL UFR197, with AF2 @ 8 μg/mL): 32 µg/mL
MIC ATB in combination ([1]; strain ECL UFR197, with AF3 @ 8 μg/mL): 4 µg/mL
MIC ATB in combination ([1]; strain ECL UFR197, with CLA @ 4 μg/mL): 128 µg/mL
MIC ([1]; strain ECL UFR198, genotype TEM-1, SHV-12, CTX-M-15, DHA-1, OXA-1, OXA-48): >128 µg/mL
MIC ATB in combination ([1]; strain ECL UFR198, with AF2 @ 8 μg/mL): 128 µg/mL
MIC ATB in combination ([1]; strain ECL UFR198, with AF3 @ 8 μg/mL): 32 µg/mL
MIC ATB in combination ([1]; strain ECL UFR198, with CLA @ 4 μg/mL): >128 µg/mL
MIC ([1]; strain ECL UFR200, genotype TEM-1, SHV-12, KPC-2): >128 µg/mL
MIC ([1]; strain ECL UFR203, genotype TEM-1, SHV-12, VIM-1, antibiotic alone): >128 µg/mL
MIC ATB in combination ([1]; strain ECL UFR203, with AF2 @ 8 μg/mL): >128 µg/mL
MIC ATB in combination ([1]; strain ECL UFR203, with AF3 @ 8 μg/mL): >128 µg/mL
MIC ATB in combination ([1]; strain ECL UFR203, with CLA @ 4 μg/mL): >128 µg/mL
MIC ([1]; strain ECL UFR214, genotype TEM-1, SHV-31, CTX-M-15, VIM-4, antibiotic alone): >128 µg/mL
MIC ATB in combination ([1]; strain ECL UFR214, with AF2 @ 8 μg/mL): >128 µg/mL
MIC ATB in combination ([1]; strain ECL UFR214, with AF3 @ 8 μg/mL): >128 µg/mL
MIC ATB in combination ([1]; strain ECL UFR214, with CLA @ 4 μg/mL): >128 µg/mL
MIC ([1]; strain ECL UFR252PT, genotype VIM-2, antibiotic alone): >128 µg/mL
MIC ATB in combination ([1]; strain ECL UFR252PT, with AF2 @ 8 μg/mL): >128 µg/mL
MIC ATB in combination ([1]; strain ECL UFR252PT, with AF3 @ 8 μg/mL): >128 µg/mL
MIC ATB in combination ([1]; strain ECL UFR252PT, with CLA @ 4 μg/mL): >128 µg/mL
MIC ATB in combination ([2]; ECO 4133, AF2 @ 8 μg/mL): <0.25 µg/mL
MIC ATB in combination ([2]; ECO 4133, AF3 @ 8 μg/mL): <0.25 µg/mL
MIC ATB in combination ([2]; ECO 4133, CLA @ 4 μg/mL): 0.5 µg/mL
MIC ATB in combination ([2]; ECO 5302, AF2 @ 8 μg/mL): <0.25 µg/mL
MIC ATB in combination ([2]; ECO 5302, AF3 @ 8 μg/mL): <0.25 µg/mL
MIC ATB in combination ([2]; ECO 5302, CLA @ 4 μg/mL): 0.5 µg/mL
MIC ATB in combination ([2]; ECO 131119, AF2 @ 8 μg/mL): <0.25 µg/mL
MIC ATB in combination ([2]; ECO 131119, AF3 @ 8 μg/mL): <0.25 µg/mL
MIC ATB in combination ([2]; ECO 131119, CLA @ 4 μg/mL): <=0.25 μg/mL
MIC ATB in combination ([2]; ECO 180070, AF2 @ 8 μg/mL): <0.25 µg/mL
MIC ATB in combination ([2]; ECO 180070, AF3 @ 8 μg/mL): <0.25 µg/mL
MIC ATB in combination ([2]; ECO 180070, CLA @ 4 μg/mL): 2 µg/mL
MIC ATB in combination ([2]; ECO 190314, AF2 @ 8 μg/mL): <0.25 µg/mL
MIC ATB in combination ([2]; ECO 190314, AF3 @ 8 μg/mL): <0.25 µg/mL
MIC ATB in combination ([2]; ECO 190314, CLA @ 4 μg/mL): 2 µg/mL
MIC ATB in combination ([2]; ECO 190317, AF2 @ 8 μg/mL): <0.25 µg/mL
MIC ATB in combination ([2]; ECO 190317, AF3 @ 8 μg/mL): <0.25 µg/mL
MIC ATB in combination ([2]; ECO 190317, CLA @ 4 μg/mL): 0.5 µg/mL
MIC ATB in combination ([2]; ECO 190457, AF2 @ 8 μg/mL): <0.25 µg/mL
MIC ATB in combination ([2]; ECO 190457, AF3 @ 8 μg/mL): <0.25 µg/mL
MIC ATB in combination ([2]; ECO 190457, CLA @ 4 μg/mL): 0.5 µg/mL
MIC ATB in combination ([2]; ECO 190549, AF2 @ 8 μg/mL): <0.25 µg/mL
MIC ATB in combination ([2]; ECO 190549, AF3 @ 8 μg/mL): <0.25 µg/mL
MIC ATB in combination ([2]; ECO 190549, CLA @ 4 μg/mL): 0.5 µg/mL
MIC ATB in combination ([2]; ECO 200159, AF2 @ 8 μg/mL): <0.25 µg/mL
MIC ATB in combination ([2]; ECO 200159, AF3 @ 8 μg/mL): <0.25 µg/mL
MIC ATB in combination ([2]; ECO 200159, CLA @ 4 μg/mL): <=0.25 μg/mL
MIC ATB in combination ([2]; ECO 200259, AF2 @ 8 μg/mL): <0.25 µg/mL
MIC ATB in combination ([2]; ECO 200259, AF3 @ 8 μg/mL): <0.25 µg/mL
MIC ATB in combination ([2]; ECO 200259, CLA @ 4 μg/mL): <=0.25 μg/mL
MIC ATB in combination ([2]; ECO 200344, AF2 @ 8 μg/mL): <0.25 µg/mL
MIC ATB in combination ([2]; ECO 200344, AF3 @ 8 μg/mL): <=0.25 μg/mL
MIC ATB in combination ([2]; ECO 200344, CLA @ 4 μg/mL): 0.5 µg/mL
MIC ATB in combination ([2]; ECO 260096, AF2 @ 8 μg/mL): <=0.25 μg/mL
MIC ATB in combination ([2]; ECO 260096, AF3 @ 8 μg/mL): <=0.25 μg/mL
MIC ATB in combination ([2]; ECO 260096, CLA @ 4 μg/mL): 1 µg/mL
MIC ATB in combination ([2]; ECO 260304, AF2 @ 8 μg/mL): <0.25 µg/mL
MIC ATB in combination ([2]; ECO 260304, AF3 @ 8 μg/mL): <0.25 µg/mL
MIC ATB in combination ([2]; ECO 260304, CLA @ 4 μg/mL): 0.5 µg/mL
MIC ATB in combination ([2]; ECO 260508, AF2 @ 8 μg/mL): <0.25 µg/mL
MIC ATB in combination ([2]; ECO 260508, AF3 @ 8 μg/mL): <0.25 µg/mL
MIC ATB in combination ([2]; ECO 260508, CLA @ 4 μg/mL): 0.5 µg/mL
MIC ATB in combination ([2]; ECO RGN238, AF2 @ 8 μg/mL): <0.25 µg/mL
MIC ATB in combination ([2]; ECO RGN238, AF3 @ 8 μg/mL): <0.25 µg/mL
MIC ATB in combination ([2]; ECO RGN238, CLA @ 4 μg/mL): <=0.25 μg/mL
MIC ATB in combination ([2]; ECO UFR15, AF2 @ 8 μg/mL): <0.25 µg/mL
MIC ATB in combination ([2]; ECO UFR15, AF3 @ 8 μg/mL): <0.25 µg/mL
MIC ATB in combination ([2]; ECO UFR15, CLA @ 4 μg/mL): 1 µg/mL
MIC ATB in combination ([2]; ECO UFR16, AF2 @ 8 μg/mL): <0.25 µg/mL
MIC ATB in combination ([2]; ECO UFR16, AF3 @ 8 μg/mL): <0.25 µg/mL
MIC ATB in combination ([2]; ECO UFR16, CLA @ 4 μg/mL): 4 µg/mL
MIC ATB in combination ([2]; ECO UFR17, AF2 @ 8 μg/mL): >128 µg/mL
